Test results taken from patent US9314420B2, “Acellular bioabsorbable tissue regeneration matrices” (priority 2005, dated 2016).
Read-outs that look alike come from different tables or passages of the source.

Experiments:
[1] = system: Fibroblast control cultures; conditions: by day 7
Description: The inhibitors were added on day 0 to the Opticells® on the day of first feeding (day 5 or 6). Thereafter, cultures were fed with regular media. Samples from the respective treatments and controls were collected on day 21 and analyzed.
Fibroblast control cultures containing 0, 10, 30 and 100 nM of α-amanitin were cultured for one week.

Neuroscreen® cells = experiment: Neuroscreen cell neurite outgrowth assay; format: cell-based, rat; conditions: standard NGF response curve
Description: The Neuroscreen® cells responded by extending neurites.
Neuroscreen® cells were maintained prior to the interaction assay by routine culture on collagen coated plastic and subcultured at confluence using basal medium consisting of RPMI (Cat #10-040-CV, Mediatech), 4.0 mM Glutamine (CAT #25-005-CI, Mediatech) supplemented with 20% Horse Serum (Cat #35-030-CV, Mediatech), 10% Fetal Bovine Serum (Cat #35-010, Mediatech).
[…] Neuroscreen® cells were assayed for the formation of neurite process extension using immuno-staining for β-tubulin as follows. Cells were fixed after 4 days in culture by adding 10% v/v of 37% formaldehyde (Cat. #2106-01, J. T. Baker) directly to the culture medium in the well. […]
Only wells with cell counts above 100 cells per field were analyzed. […]
Human peripheral blood collected into ten 8 ml Vacutainer™ tubes containing K2EDTA was shipped overnight on ice and then placed vertically into a +4° C. fridge for 6 hours in order to allow the blood to gravity separate. […] After thoroughly mixing the contents of each conical tube, 10 ml quantities of the solutions were injected into separate sets of 5 Opticells™, and then placed horizontally into a 37° C., […], 2% O2, non-humidified incubator. […]

## CC[C@H](C)[C@@H]1NC(=O)CNC(=O)[C@@H]2Cc3c([nH]c4cc(O)ccc34)[S+]([O-])C[C@@H](NC(=O)CNC1=O)C(=O)N[C@@H](CC(N)=O)C(=O)N1C[C@H](O)C[C@H]1C(=O)N[C@@H]([C@@H](C)[C@@H](O)CO)C(=O)N2 (stereo in doubt) [α-amanitin]
[1]; 10 nM
  Mortality: 60-70%
[1]; 30 nM
  Mortality: 80-90%
[1]; 100 nM
  Mortality: ~100%

## NGF: nerve growth factor, positive control at 100 ng/ml
Neuroscreen® cells
  Effect of fresh NGF at amounts less than 10 ng per well: limited or no effect
Neuroscreen® cells; fresh NGF
  NGF amount at which maximal responses occur: 100 ng of NGF per well
